Measured values as given in patent publication US12630540B2, “(4-(6-((2-octahydrocyclopenta[c]pyrrol-5-yl)amino)pyridazin-3-yl)phenyl)(imino)(methyl)-LAMBDA6-sulfanone derivatives and similar compounds as muscarinic acetylcholine receptor M4 antagonists for the treatment of neurodegenerative disorders” (Vanderbilt University, priority 2021, dated 2026).

Target: T1, Human M4 (Homo sapiens, UniProt P08173)
T1 construct: expressed in transfected cells; host or cells: CHO-K1 (ATCC), stably expressing M4 and Gqi5
T1 sequence (P08173 1-479): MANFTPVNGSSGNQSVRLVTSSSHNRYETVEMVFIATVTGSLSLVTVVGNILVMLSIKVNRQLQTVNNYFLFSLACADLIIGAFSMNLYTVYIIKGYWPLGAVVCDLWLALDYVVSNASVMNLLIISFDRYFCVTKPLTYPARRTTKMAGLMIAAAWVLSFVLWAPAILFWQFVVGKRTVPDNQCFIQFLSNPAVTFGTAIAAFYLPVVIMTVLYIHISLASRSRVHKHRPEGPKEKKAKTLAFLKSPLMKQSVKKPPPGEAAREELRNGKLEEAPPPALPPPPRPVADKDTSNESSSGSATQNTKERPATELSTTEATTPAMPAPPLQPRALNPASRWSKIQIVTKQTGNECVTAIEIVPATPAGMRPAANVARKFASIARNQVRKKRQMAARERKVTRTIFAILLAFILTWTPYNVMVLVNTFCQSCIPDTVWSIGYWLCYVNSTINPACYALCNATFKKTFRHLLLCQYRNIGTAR
Assay: mAChR M4 cell-based functional assay (calcium flux, antagonism of EC80 acetylcholine response)
Conditions: M4/Gqi5 CHO-K1 cells; for Human M4 Emin: % ACh maximum at 30 μM; for IC50: decrease of the response elicited by an EC80 concentration of acetylcholine
Protocol: Human or rat M4 cDNA, along with the chimeric G protein Gqi5, were transfected into Chinese hamster ovary (CHO-K1) cells purchased from the American Type Culture Collection using Lipofectamine2000. M4/Gqr5/CHO cells were grown in Ham's F-12 medium containing 10% heat-inactivated fetal bovine serum (FBS), 20 mM HEPES, 500 μg/mL G418 sulfate, and 200 μg/mL Hygromycin B.
For high throughput measurement of agonist-evoked increases in intracellular calcium, CHO-K1 cells stably expressing muscarinic receptors were plated in growth medium lacking G418 and hygromycin at 15,000 cells/20 μL/well in Greiner 384-well black-walled, tissue culture (TC)-treated, clear-bottom plates (VWR). Cells were incubated overnight at 37° C. and 5% CO2. The next day, cells were washed using an ELX 405 (BioTek) with assay buffer; the final volume was then aspirated to 20 μL. Next, 20 μL of a 2.3 μM stock of Fluo-4/acetoxymethyl ester (Invitrogen, Carlsbad, CA), prepared as a 2.3 mM stock in DMSO and mixed in a 1:1 ratio with 10% (w/v) Pluronic F-127 and diluted in assay buffer, was added to the wells and the cell plates were incubated for 50 min at 37° C. and 5% CO2. Dye was removed by washing with the ELX 405 and the final volume was aspirated to 20 μL. Compound master plates were formatted in a 10 point concentration-response curve (CRC) format (1:3 dilutions) in 100% DMSO with a starting concentration of 10 or 1 mM using a BRAVO liquid handler (Agilent). Test compound CRCs were then transferred to daughter plates (240 nL) using the Echo acoustic plate reformatter (Labcyte, Sunnyvale, CA) and then diluted into assay buffer (40 μL) to a 2× stock using a Thermo Fisher Combi (Thermo Fisher Scientific, Waltham, MA).
Calcium flux was measured using the Functional Drug Screening System (FDSS) 6000 or 7000 (Hamamatsu Corporation, Tokyo, Japan) as an increase in the fluorescent static ratio. Compounds were applied to cells (20 μL, 2×) using the automated system of the FDSS at 2 seconds into the protocol and the data were collected at 1 Hz. At 143 s, 10 μL of an EC20 concentration of the muscarinic receptor agonist acetylcholine was added (5×), followed by the addition of 12 μL of an EC80 concentration of acetylcholine at the 268 s time point (5×). Agonist activity was analyzed as a concentration-dependent increase in calcium mobilization upon compound addition. Positive allosteric modulator activity was analyzed as a concentration-dependent increase in the EC20 acetylcholine response. Antagonist activity was analyzed as a concentration-dependent decrease in the EC80 acetylcholine response; for the purposes of the tables herein, an IC50 (inhibitory concentration 50) was calculated as a concentration-dependent decrease of the response elicited by an EC80 concentration of acetylcholine. Concentration-response curves were generated using a four-parameter logistical equation in XLFit curve fitting software (IDBS, Bridgewater, NJ) for Excel (Microsoft, Redmond, WA) or Prism (GraphPad Software, Inc., San Diego, CA) or the Dotmatics software platform (Dotmatics, Bishop's Stortford, UK).
Compounds were synthesized as described above. Activity (IC50 and Emin) was determined in the mAChR M4 cell-based functional assay as described above and the data are shown in Table 2.

[2H]C([2H])(C1CCOCC1)N1C[C@H]2C[C@H](Nc3ccc(-c4ccc(S(C)(=N)=O)cc4F)nn3)C[C@H]2C1 (stereo partly drawn) [compound 5, (3-fluoro-4-(6-(((3aR,5s,6aS)-2-((tetrahydro-2H-pyran-4-yl)methyl-d2)octahydrocyclopenta[c]pyrrol-5-yl)amino)pyridazin-3-yl)phenyl)(imino)(methyl)-λ^6-sulfanone]
Human M4 Emin: 3%
IC50: 75.4 nM

[2H]C([2H])(C1CCOCC1)N1C[C@H]2C[C@H](Nc3ccc(-c4cc(F)c(S(C)(=N)=O)cc4F)nn3)C[C@H]2C1 (stereo partly drawn) [compound 1, (2,5-difluoro-4-(6-(((3aR,5s,6aS)-2-((tetrahydro-2H-pyran-4-yl)methyl-d2)octahydrocyclopenta[c]pyrrol-5-yl)amino)pyridazin-3-yl)phenyl)(imino)(methyl)-λ^6-sulfanone]
Human M4 Emin: 4%
IC50: 13.4 nM

CS(=N)(=O)c1cc(F)c(-c2ccc(N[C@H]3C[C@@H]4CN(Cc5ccccn5)C[C@@H]4C3)nn2)cc1F (stereo partly drawn) [compound 8, (2,5-difluoro-4-(6-(((3aR,5s,6aS)-2-(pyridin-2-ylmethyl)octahydrocyclopenta[c]pyrrol-5-yl)amino)pyridazin-3-yl)phenyl)(imino)(methyl)-λ^6-sulfanone]
Human M4 Emin: 7%
IC50: 560 nM

[2H]C([2H])(C1CCOCC1)N1C[C@H]2C[C@H](Nc3ccc(-c4ccc(S(C)(=N)=O)c(F)c4)nn3)C[C@H]2C1 (stereo partly drawn) [compound 6, (2-fluoro-4-(6-(((3aR,5s,6aS)-2-((tetrahydro-2H-pyran-4-yl)methyl-d2)octahydrocyclopenta[c]pyrrol-5-yl)amino)pyridazin-3-yl)phenyl)(imino)(methyl)-λ^6-sulfanone]
Human M4 Emin: 3%
IC50: 188 nM

CS(=N)(=O)c1cc(F)c(-c2ccc(N[C@H]3C[C@@H]4CN(CC5CCCCC5)C[C@@H]4C3)nn2)cc1F (stereo partly drawn) [compound 10, (4-(6-(((3aR,5s,6aS)-2-(cyclohexylmethyl)octahydrocyclopenta[c]pyrrol-5-yl)amino)pyridazin-3-yl)-2,5-difluorophenyl)(imino)(methyl)-λ^6-sulfanone]
Human M4 Emin: 2%
IC50: 1.8 nM

[2H]C([2H])([2H])N=S(C)(=O)c1cc(F)c(-c2ccc(N[C@H]3C[C@@H]4CN(C([2H])([2H])C5CCOCC5)C[C@@H]4C3)nn2)cc1F (stereo partly drawn) [compound 3, (2,5-difluoro-4-(6-(((3aR,5s,6aS)-2-((tetrahydro-2H-pyran-4-yl)methyl-d2)octahydrocyclopenta[c]pyrrol-5-yl)amino)pyridazin-3-yl)phenyl)(methyl)((methyl-d3)imino)-λ^6-sulfanone]
Human M4 Emin: 3%
IC50: 18.5 nM

[2H]C([2H])(C1CCOCC1)N1C[C@H]2C[C@H](Nc3ccc(-c4ccc(S(C)(=O)=NC(F)(F)F)cc4)nn3)C[C@H]2C1 (stereo partly drawn) [compound 12, methyl(4-(6-(((3aR,5s,6aS)-2-((tetrahydro-2H-pyran-4-yl)methyl-d2)octahydrocyclopenta[c]pyrrol-5-yl)amino)pyridazin-3-yl)phenyl)((trifluoromethyl)imino)-λ^6-sulfanone]
Human M4 Emin: 2%
IC50: 43.4 nM

CS(=N)(=O)c1cc(F)c(-c2ccc(N[C@H]3C[C@@H]4CN(CC5CCOCC5)C[C@@H]4C3)nn2)cc1F (stereo partly drawn) [compound 7, (2,5-difluoro-4-(6-(((3aR,5s,6aS)-2-((tetrahydro-2H-pyran-4-yl)methyl)octahydrocyclopenta[c]pyrrol-5-yl)amino)pyridazin-3-yl)phenyl)(imino)(methyl)-λ^6-sulfanone]
Human M4 Emin: 3%
IC50: 40 nM

[2H]C([2H])(C1CCOCC1)N1C[C@H]2C[C@H](Nc3ccc(-c4cc(F)c(S(C)(=O)=NC(C)=O)cc4F)nn3)C[C@H]2C1 (stereo partly drawn) [compound 4, N-((2,5-difluoro-4-(6-(((3aR,5s,6aS)-2-((tetrahydro-2H-pyran-4-yl)methyl-d2)octahydrocyclopenta[c]pyrrol-5-yl)amino)pyridazin-3-yl)phenyl)(methyl)(oxo)-λ^6-sulfaneylidene)acetamide]
Human M4 Emin: 6%
IC50: 584 nM

CS(=N)(=O)c1cc(F)c(-c2ccc(N[C@H]3C[C@@H]4CN(CCC5CCOCC5)C[C@@H]4C3)nn2)cc1F (stereo partly drawn) [compound 9, (2,5-difluoro-4-(6-(((3aR,5s,6aS)-2-(2-(tetrahydro-2H-pyran-4-yl)ethyl)octahydrocyclopenta[c]pyrrol-5-yl)amino)pyridazin-3-yl)phenyl)(imino)(methyl)-λ^6-sulfanone]
Human M4 Emin: 3%
IC50: 18.4 nM

[2H]C([2H])(C1CCOCC1)N1C[C@H]2C[C@H](Nc3ccc(-c4ccc(S(C)(=N)=O)c(C(F)(F)F)c4)nn3)C[C@H]2C1 (stereo partly drawn) [compound 13, imino(methyl)(4-(6-(((3aR,5s,6aS)-2-((tetrahydro-2H-pyran-4-yl)methyl-d2)octahydrocyclopenta[c]pyrrol-5-yl)amino)pyridazin-3-yl)-2-(trifluoromethyl)phenyl)-λ^6-sulfanone]
Human M4 Emin: 3%
IC50: 8.6 nM

[2H]C([2H])(C1CC(C)(C)OC(C)(C)C1)N1C[C@H]2C[C@H](Nc3ccc(-c4cc(F)c(S(C)(=N)=O)cc4F)nn3)C[C@H]2C1 (stereo partly drawn) [compound 11, (2,5-difluoro-4-(6-(((3aR,5s,6aS)-2-((2,2,6,6-tetramethyltetrahydro-2H-pyran-4-yl)methyl-d2)octahydrocyclopenta[c]pyrrol-5-yl)amino)pyridazin-3-yl)phenyl)(imino)(methyl)-λ^6-sulfanone]
Human M4 Emin: 3%
IC50: 86.2 nM

[2H]C([2H])(C1CCOCC1)N1C[C@H]2C[C@H](Nc3ccc(-c4ccc(S(C)(=N)=O)cc4)nn3)C[C@H]2C1 (stereo partly drawn) [compound 2, imino(methyl)(4-(6-(((3aR,5s,6aS)-2-((tetrahydro-2H-pyran-4-yl)methyl-d2)octahydrocyclopenta[c]pyrrol-5-yl)amino)pyridazin-3-yl)phenyl)-λ^6-sulfanone]
Human M4 Emin: 2%
IC50: 39.6 nM
